The text below walks through data of patent EP0724884B1, “SIDE EFFECT INHIBITOR FOR CANCER THERAPY” (Nakamura, Toshikazu, priority 1991, dated 1993).

This series has as its system primary-culture hepatocytes. Nature of the series: Leakage of GOT from primary-culture hepatocytes exposed to liver poison (Test Examples 1-4). Type of series: cell-based, rat. To be noted: Liver poison alone, no addition of HGF (Carbon tetrachloride 5 mM; Mitomycin C 8 µM); culture for 24 hours; control 6.0 ± 0.4.

Each structure is given as a SMILES string.

Protocol: The primary culture was carried out as follows: Isolated hepatocytes were dispersed in William's medium (5% bovine serum, 10^-9 M insulin and 10^-9 M dexamethasone) and the cells were seeded in a 12-well plastic dish (Corning Co.) having the bottom coated with Type-I collagen. The culture medium was exchanged with the medium containing aprotinin at 0.5 µg/ml and without serum and hormones 2 hours later.
The protective effect of HGF on the hepatocytes was tested by the effect on the leakage to enzymes from the cytoplasm of the hepatocytes in the primary culture.
In order to mimick this phenomenon, hepatocyte primary-culture added with the liver poison was used. Thus the leakage of cytoplasmic enzymes such as GOT was measured in this culture system, and the protective activity on the hepatocytes by HGF was estimated along with measurement of the degree of inhibition of leakage of GOT or others. […]
The primary-culture hepatocytes described in Reference Example 3 were seeded at the surface density of 1.2 x 10^5 cells/cm^2 and on the next day, the medium was changed to one without serum, followed by the addition of HGF at 10 ng/ml and/or carbon tetrachloride at 5 mM. […] The GOT activity in the supernatant was measured by the conventional method. […]

Regarding `ClC(Cl)(Cl)Cl` [Carbon tetrachloride], the GOT activity is reported as 12.7 ± 1.2 mU/ml.
